Assay results reported in ChEMBL document CHEMBL1857833, “Screening and optimization of specific chemical series against human African Trypanosomiasis (HAT)”.
Values after ≈ are worked out from the molar mass of the structure shown. Values joined by “and” are separate entries in the source; they are usually repeats but may differ in a detail not shown here. Equal values may be shown once.

Columns and labels:
[1] = DNDI: Cytotoxicity against L929 mouse fibroblasts, 72 hour.; format: toxicity, cell-based; conditions: mouse, L929 mouse fibroblasts
Trypanosoma brucei [2] = assay: DNDI: Inhibition of Human African Trypanosomiasis, SBRI 427, in vitro; format: functional, organism-based
[3] = DNDI: Lipophilicity measured in Chromatographic hydrophobicity index (CHI) assay, pH 7.4; format: physicochemical; conditions: buffer
[4] = DNDI: Solubility in phosphate buffered saline at pH7.4 measured by nephelometry at room temperature (NEPH-RT); format: physicochemical; conditions: pH 7.4
[5] = mouse, microsomes, 1 µM
Description: DNDI: in vitro intrinsic clearance in mouse liver microsomes at a concentration of 1uM

in vitro = conditions: mouse, liver microsomes, t (1 / 2)
Description: DNDI: half life in mouse liver microsomes at a concentration of 1uM

[6] = DNDI: Cytotoxicity against L929 mouse fibroblasts, CYTO-SP, 24 hour; format: toxicity, cell-based; conditions: mouse, L929 mouse fibroblasts
Trypanosoma brucei [7] = assay: DNDI: Inhibition of Human African Trypanosomiasis, Cross 22, in vitro; format: functional, organism-based
[8] = Trypanosoma brucei, SBRI 427, read-out: IC50

Row | SMILES | IC50 (Trypanosoma brucei [2]; [8]) | chromatographic logD [3] | solubility kinetic [4] | CLint in vitro [5] | half-life at 1 µM (in vitro) | IC50 (Trypanosoma brucei [7]) | IC50 (Trypanosoma brucei [2]) | IC50 at 72 h [1] | IC50 at 24 h [6]
1 | C[C@@H]1[C@H]2C[C@@H](C[C@H]1NCc1coc(-c3ccc(Br)cc3)n1)C2(C)C |  |  |  |  |  | 0.82 µg/mL (≈ 2.11 µM) | 0.42 µg/mL and 0.92 µg/mL and 0.85 µg/mL | < 3.13 µg/mL | > 50 µg/mL
2 | CCCCOc1ccc(-c2nc(CNC[C@@H]3CC[C@H]4C[C@@H]3C4(C)C)co2)cc1 |  |  |  | 95 µL/min/mg | 9 min | 1.03 µg/mL (≈ 2.69 µM) | 1.54 µg/mL and 0.83 µg/mL and 0.57 µg/mL | < 3.13 µg/mL | 16.4 µg/mL (≈ 42.9 µM)
3 | CC1(C)[C@H]2CC[C@@H](CNCc3coc(-c4ccc(Cl)cc4)n3)[C@@H]1C2 | 0.8 µg/mL (≈ 2.32 µM) |  |  |  |  | 1.04 µg/mL (≈ 3.02 µM) | 0.9 µg/mL and 1.53 µg/mL | 3.52 µg/mL (≈ 10.2 µM) | > 50 µg/mL
4 | CCCCCC(C)NCc1coc(-c2ccc(OCC(=O)c3ccccc3)cc2)n1 (stereo not given) | 0.59 µg/mL (≈ 1.45 µM) | 4.16 | 2 µM (≈ 0.813 µg/mL) | 188 µL/min/mg | 5 min |  |  | 1.74 µg/mL (≈ 4.28 µM) | 
5 | COc1ccc(/C(=N/O)Nc2cccc(F)c2)cc1 | 0.67 µg/mL (≈ 2.57 µM) | 3.09 | 50 µM (≈ 13 µg/mL) | 143.33 µL/min/mg | 5.93 min |  |  | > 10 µg/mL | 
6 | C[C@@H]1[C@H]2C[C@@H](C[C@H]1NCc1coc(-c3ccc(C(C)(C)C)cc3)n1)C2(C)C | > 5 µg/mL |  |  |  |  | > 5 µg/mL |  | > 50 µg/mL | > 50 µg/mL
7 | O/N=C(/c1ccccc1-c1ccccc1)N1CCCCC1 | > 5 µg/mL | 4.46 | 50 µM (≈ 14 µg/mL) | 157 µL/min/mg | 5 min |  |  |  | > 50 µg/mL
8 | CC(C)(C)c1ccc(-c2nc(CNC3CCCCCC3)co2)cc1 | 0.39 µg/mL (≈ 1.19 µM) | 5.41 | 25 µM (≈ 8.16 µg/mL) |  |  | 0.44 µg/mL (≈ 1.35 µM) | 0.3 µg/mL and 0.49 µg/mL | < 3.13 µg/mL | > 50 µg/mL
9 | CCC(C)C(NCc1ccccc1OC)c1nc(-c2ccccc2)c(N2CCCCC2)o1 (stereo not given) | 4.82 µg/mL (≈ 11.1 µM) | > 5.2 | 2 µM (≈ 0.867 µg/mL) | 227 µL/min/mg | 4 min |  |  | > 10 µg/mL | 
10 | C[C@@H]1[C@H]2C[C@@H](C[C@H]1NCc1coc(-c3ccc(-c4ccccc4)cc3)n1)C2(C)C | 0.24 µg/mL (≈ 0.621 µM) |  |  |  |  | 0.37 µg/mL (≈ 0.957 µM) | 0.19 µg/mL (≈ 0.492 µM) | < 3.13 µg/mL | 8.15 µg/mL (≈ 21.1 µM)

Continued, in another order:

Row | IC50 (Trypanosoma brucei [2]; [8]) | chromatographic logD [3] | solubility kinetic [4] | CLint in vitro [5] | half-life at 1 µM (in vitro) | IC50 (Trypanosoma brucei [7]) | IC50 (Trypanosoma brucei [2]) | SMILES | IC50 at 72 h [1] | IC50 at 24 h [6]
11 | 0.84 µg/mL (≈ 2.57 µM) | 4.89 | < 1 µM | 33 µL/min/mg | 26 min |  |  | CCCCc1ccc(-c2nc(CNCCN3CCCC3)co2)cc1 | 3.87 µg/mL (≈ 11.8 µM) | 
12 | 0.79 µg/mL (≈ 2.62 µM) | 4.97 | 1 µM (≈ 0.301 µg/mL) | 55 µL/min/mg | 15 min |  |  | CCCCc1ccc(-c2nc(CNCCN(C)C)co2)cc1 | 4.87 µg/mL (≈ 16.2 µM) | 
13 |  |  |  |  |  | 2.26 µg/mL (≈ 5.83 µM) | 1.2 µg/mL and 3.02 µg/mL and 2.81 µg/mL | Brc1ccc(-c2nc(CNC3[C@H]4C[C@@H]5C[C@@H](C[C@H]3C5)C4)co2)cc1 (stereo not given in full) | 8.08 µg/mL (≈ 20.9 µM) | > 50 µg/mL
14 | 0.39 µg/mL (≈ 1.05 µM) | 4.28 | 3 µM (≈ 1.11 µg/mL) | 13 µL/min/mg | 65 min |  |  | CCCCCC(C)NCc1coc(-c2ccc(OC3CCCCC3)cc2)n1 (stereo not given) | 1.48 µg/mL (≈ 3.99 µM) | 
15 | > 5 µg/mL |  |  |  |  | > 5 µg/mL |  | CC1CC(NCc2coc(-c3ccc(C(C)(C)C)cc3)n2)CC(C)(C)C1 (stereo not given) | > 50 µg/mL | > 50 µg/mL
16 | > 5 µg/mL |  |  |  |  | > 5 µg/mL |  | CC1(C)[C@H]2CC[C@@H](CNCc3coc(-c4ccc(Br)cc4)n3)[C@@H]1C2 | 50 µg/mL (≈ 128 µM) | > 50 µg/mL
17 | 2.72 µg/mL (≈ 11.2 µM) | 3.1 | > 200 µM | 121 µL/min/mg | 7 min |  |  | COc1ccc(/C(=N\O)Nc2ccccc2)cc1 |  | > 50 µg/mL
18 | 3.46 µg/mL (≈ 11.3 µM) | 3.98 | 25 µM (≈ 7.66 µg/mL) | 59 µL/min/mg | 14 min |  |  | O/N=C(/Nc1ccc(F)cc1)c1ccccc1-c1ccccc1 |  | > 50 µg/mL
19 | 1.46 µg/mL (≈ 4.64 µM) |  |  | 22 µL/min/mg | 39 min | 1.12 µg/mL (≈ 3.56 µM) | 1.36 µg/mL and 0.96 µg/mL | CCOc1ccc(-c2nc(CNC3CCCCCC3)co2)cc1 | < 3.13 µg/mL | 25.1 µg/mL (≈ 80 µM)
20 | 4.54 µg/mL (≈ 17.4 µM) | 3.02 | 100 µM (≈ 26 µg/mL) | 118 µL/min/mg | 7 min |  |  | COc1ccc(/C(=N/O)Nc2ccc(F)cc2)cc1 | > 10 µg/mL | 
